In ChEMBL document CHEMBL1201862, “PubChem BioAssay data set” (2004):
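Tested at 5 concentrations; 48 h exposure; 96-well plates; endpoints linearly interpolated, else capped at highest concentration. GI50 is the concentration that inhibits growth by half.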 Active and inactive are the calls of the source. No stated cut-off is given here; in the data, active = GI50 up to about 1.1 µM and inactive = higher.

Key:
Test in all cases: growth of human tumour cells (NCI), 48 h
786-0 = tested on: 786-0
A549 = tested on: A549
COLO 205 = tested on: COLO 205
DU-145 = tested on: DU-145
HOP-62 = tested on: HOP-62
HOP-92 = tested on: HOP-92
HT-29 = tested on: HT-29
IGROV-1 = tested on: IGROV-1
K562 = tested on: K562
KM12 = tested on: KM12
MDA-MB-435 = tested on: MDA-MB-435
MOLT-4 = tested on: MOLT-4
OVCAR-3 = tested on: OVCAR-3
OVCAR-4 = tested on: OVCAR-4
RPMI-8226 = tested on: RPMI-8226
RXF 393 = tested on: RXF 393
SNB-19 = tested on: SNB-19
SNB-75 = tested on: SNB-75
UACC-257 = tested on: UACC-257
UACC-62 = tested on: UACC-62

| SMILES | GI50 (786-0) | GI50 (A549) | GI50 (COLO 205) | GI50 (DU-145) | GI50 (HOP-62) | GI50 (HOP-92) | GI50 (HT-29) | GI50 (IGROV-1) | GI50 (K562) | GI50 (KM12) | GI50 (MDA-MB-435) | GI50 (MOLT-4) | GI50 (OVCAR-3) | GI50 (OVCAR-4) | GI50 (RPMI-8226) | GI50 (RXF 393) | GI50 (SNB-19) | GI50 (SNB-75) | GI50 (UACC-257) | GI50 (UACC-62) |
| --- | --- | --- | --- | --- | --- | --- | --- | --- | --- | --- | --- | --- | --- | --- | --- | --- | --- | --- | --- | --- |
| C=C1C(=O)C2=CC1CCC(=O)C1(C)CCC(OC(C)=O)C(C)(C)C1CC2O (stereo not given) | 3.01 µM (inactive) | 4.38 µM (inactive) | 0.771 µM (active) | 3.03 µM (inactive) | 8.45 µM (inactive) | 4.22 µM (inactive) | 1.35 µM (inactive) | 3.03 µM (inactive) | 0.352 µM (active) | 3.31 µM (inactive) | 3.24 µM (inactive) | 0.661 µM (active) | 3.73 µM (inactive) | 2.17 µM (inactive) | 2.53 µM (inactive) | 2.23 µM (inactive) | 3.58 µM (inactive) | 8.32 µM (inactive) | 3.73 µM (inactive) | 2.27 µM (inactive) |
| N#CC1(Nc2ccc(-c3ccc(NC4(C#N)CCCC4)cc3)cc2)CCCC1 | > 100 µM (inactive) | > 100 µM (inactive) | > 100 µM (inactive) | > 100 µM (inactive) | > 100 µM (inactive) | 39.3 µM (inactive) | 77.4 µM (inactive) | > 100 µM (inactive) | > 100 µM (inactive) | > 100 µM (inactive) | > 100 µM (inactive) | 86.1 µM (inactive) | > 100 µM (inactive) | > 100 µM (inactive) | > 100 µM (inactive) | > 100 µM (inactive) | > 100 µM (inactive) | > 100 µM (inactive) | > 100 µM (inactive) | > 100 µM (inactive) |
| Cc1ccc(C)n1-c1ccccc1C1C=CN(C(=O)OC(C)(C)C)C=C1 | 31.8 µM (inactive) | 31.1 µM (inactive) | 17.2 µM (inactive) | 56.4 µM (inactive) | 31.4 µM (inactive) | 37.6 µM (inactive) | 12.1 µM (inactive) | 31.4 µM (inactive) | 32.3 µM (inactive) | 14.9 µM (inactive) | 36.2 µM (inactive) | 21.7 µM (inactive) | 17.8 µM (inactive) | 71.4 µM (inactive) | 20.4 µM (inactive) | 19.6 µM (inactive) | 47.6 µM (inactive) | 13.5 µM (inactive) | 34.7 µM (inactive) | 25.8 µM (inactive) |
| O=C(NCCCNCCCCNCCCNC(=O)c1cc(-c2ccccc2)nc2ccccc12)c1cc(-c2ccccc2)nc2ccccc12 | 1.69 µM (inactive) | 2.12 µM (inactive) | 1.91 µM (inactive) | 17.6 µM (inactive) | 2.36 µM (inactive) | 1.48 µM (inactive) | 1.91 µM (inactive) | 2.16 µM (inactive) | 2.14 µM (inactive) | 2.19 µM (inactive) | 1.8 µM (inactive) | 1.9 µM (inactive) | 2.66 µM (inactive) | 2.64 µM (inactive) | 2.16 µM (inactive) | 3.69 µM (inactive) | 1.67 µM (inactive) | 1.85 µM (inactive) | 3.74 µM (inactive) | 2.16 µM (inactive) |
